Assay results as given in EP0231671B1, “Gonatriene derivatives and process for preparing them” (MITSUBISHI KASEI CORPORATION, priority 1985, dated 1987).

System: female rats
Assay: Anti-gonadotropic activity: ovary weight after 14 days of oral administration, test group compared with control group
Assay type: in vivo
Design: key: -: no effective; +: effective; ++: very effective
Settings: suspended in 10 % ethanol-containing cotton seed oil, ovary weight vs control group
Protocol: Each compound obtained in Examples and suspended in a 10 % ethanol-containing cotton seed oil was orally administrated to female rats in a dose of 0.1, 1 or 10 mg/kg for 14 days. While, for the control group, only the cotton seed oil was orally administrated for the same period.
After the completion of the administration, the ovary of each rat was weighted. From the comparison of the weight in the test group with that in the control group, the anti-gonadotropic activity of the gonatriene compound of this invention was evaluated.

**Q.** With `CC[C@]12C=CC3=C4CCC(=O)C=C4CC[C@H]3[C@@H]1CC[C@@]2(O)CSC#N` [Example 9, 17α-thiocyanatemethyl-17β-hydroxy-13βethyl-gona-4,9,11-triene-3-one] as the compound, how does the anti-gonadotropic activity (1 mg/kg for 14 days) read?
**A.** Its anti-gonadotropic activity is “++”.

**Q.** And the anti-gonadotropic activity (10 mg/kg for 14 days)?
**A.** Its anti-gonadotropic activity is “++”.

**Q.** For `C[C@]12C=CC3=C4CCC(=O)C=C4CC[C@H]3[C@@H]1CC[C@@]2(O)CCl` [Example 1, 17α-chloromethyl-17β-hydroxy-13β-methyl-gona-4.9.11-triene-3-one], which anti-gonadotropic activity (0.1 mg/kg for 14 days) is on record?
**A.** Its anti-gonadotropic activity is “-”.

**Q.** What about the anti-gonadotropic activity (10 mg/kg for 14 days) of the same compound?
**A.** The anti-gonadotropic activity was “++”.

**Q.** With `CC[C@]12C=CC3=C4CCC(=O)C=C4CC[C@H]3[C@@H]1CC[C@@]2(O)CSC` [Example 7, 17α-methylthiomethyl-17β-hydroxy-13β-ethyl-aona-4.9.11-triene-3-one] as the compound, how does the anti-gonadotropic activity (0.1 mg/kg for 14 days) read?
**A.** The anti-gonadotropic activity was “-”.

**Q.** What about the anti-gonadotropic activity (10 mg/kg for 14 days) of the same compound?
**A.** Its anti-gonadotropic activity is “++”.

**Q.** `CC[C@]12C=CC3=C4CCC(=O)C=C4CC[C@H]3[C@@H]1CC[C@@]2(O)CCl` [Example 4, 17α-chloromethyl-17β-hydroxy-13β-ethyl-gona-4,9,11-triene-3-one] was tested. Which anti-gonadotropic activity (0.1 mg/kg for 14 days) did it give?
**A.** The anti-gonadotropic activity was “-”.

**Q.** What about the anti-gonadotropic activity (1 mg/kg for 14 days) of the same compound?
**A.** The anti-gonadotropic activity was “+”.

**Q.** And the anti-gonadotropic activity (10 mg/kg for 14 days)?
**A.** Its anti-gonadotropic activity is “++”.

**Q.** How did the anti-gonadotropic activity (0.1 mg/kg for 14 days) turn out when `C[C@]12C=CC3=C4CCC(=O)C=C4CC[C@H]3[C@@H]1CC[C@@]2(O)CC#N` [Example 2, 17α-cyanomethyl-17β-hydroxy-13β-methyl-gona-4,9,11-triene-3-one] was run?
**A.** The anti-gonadotropic activity was “-”.

**Q.** What about the anti-gonadotropic activity (1 mg/kg for 14 days) of the same compound?
**A.** The anti-gonadotropic activity was “+”.

**Q.** What about the anti-gonadotropic activity (10 mg/kg for 14 days) of the same compound?
**A.** Its anti-gonadotropic activity is “++”.

**Q.** Which results are given for `CC[C@]12C=CC3=C4CCC(=O)C=C4CC[C@H]3[C@@H]1CC[C@@]2(O)CC#N` [Example 3, 17α-cyanomethyl-17β-hydroxy-13β-ethyl-gona-4,9,11-triene-3-one]?
**A.** anti-gonadotropic activity (0.1 mg/kg for 14 days): -; anti-gonadotropic activity (1 mg/kg for 14 days): +; anti-gonadotropic activity (10 mg/kg for 14 days): ++

**Q.** With `CC[C@]12C=CC3=C4CCC(=O)C=C4CC[C@H]3[C@@H]1CC[C@@]2(O)COC` [Example 6, 17α-methoxymethyl-17β-hydroxy-13β-ethyl-gona-4,9,11-triene-3-one] as the compound, how does the anti-gonadotropic activity (10 mg/kg for 14 days) read?
**A.** The anti-gonadotropic activity was “++”.
